From US20230346670A1, “Prebiotic Oral Care Compositions and Methods” (Colgate-Palmolive Company, priority 2020, published 2023)
Marks after values point to notes of the source that are not given here.

Legend:
Format in all cases: cell-based
A. actinomycetemcomitans = assay: Multi-species biofilm composition, absolute abundance (Geq/mL); settings: repeated rinsing
Protocol: (§1) Biofilms are grown vertically on Calcium Deficient Hydroxyapatite (CAD-HA) disks (Hitemco Medical, Old Bethpage, USA) using the Amsterdam Active Adhesion model. Biofilms are allowed to establish during 24 h (37° C., 170 rpm) under microaerophilic conditions (6% O2, 7% CO2, 7% H2, 80% N2). After this 24 h, disks are rinsed 3 times a day for 3 minutes (RT, 250 rpm), for 3 consecutive days, by transferring the lid containing the disks to a new 24-well plate containing 2 mL/well of the appropriate substrate solution. As a negative control, PBS (pH 5.7) without substrate supplementation is used.
(§2) N-acetyl-D-glucosamine (NADG), α-D-lactose, D-(+)-trehalose and D-(+)-raffinose are selected to determine their effects on multi-species biofilm composition. Repeated rinsing of the biofilms with the substrates at a concentration of 1 M results in a significant decrease in absolute numbers in at least four of the pathogenic bacterial species tested in the assay, in comparison to the control, the results of which are described in Table 1 below. Note, NADG decreased absolute numbers of S. sobrinus. Absolute abundances of bacterial species are shown as mean ± SD (n = 3) logarithmic values of the genome equivalents per millilitre (log(Geq/mL)).

A. naeslundii = assay: as above; settings: repeated rinsing
Protocol: as §1, §2

P. gingivalis = assay: as above; settings: repeated rinsing
Protocol: as §1, §2

P. intermedia = assay: as above; settings: repeated rinsing
Protocol: as §1, §2

S. gordonii = assay: as above; settings: repeated rinsing
Protocol: as §1, §2

S. mitis = assay: as above; settings: repeated rinsing
Protocol: as §1, §2

S. oralis = assay: as above; settings: for absolute abundance of S. oralis, mean ± SD log (Geq/mL): repeated rinsing
Protocol: as §1, §2

S. sobrinus = assay: as above; settings: repeated rinsing
Protocol: as §1, §2

multi-species biofilms = assay: Organic acid levels in supernatant of multi-species biofilms (ion chromatography); settings: >0 production, <0 consumption, n = 3
Protocol: as §1
Levels of organic acids in the filter sterilized supernatant of the multi-species biofilms are measured using a 761 Compact Ion Chromatograph (Metrhohm, Switzerland) with a Metrosep Organic acids Guard/4.6 guard column. The supernatants from the substrate-treated multi-species biofilms are analyzed to gain more insight into the influence of the substrates on organic acid consumption/production.

[1] = test system: A. actinomycetemcomitans virulence genes; assay: Virulence gene expression in multi-species biofilm (SYBR RT-qPCR)
Protocol: as §1
(§3) The virulence of the substrate-treated multi-species biofilms are evaluated by analyzing the relative expression of 33 genes that are recognized as being related to some form of virulence and from 4 periodontal pathogens.
(§4) Expression of bacterial virulence genes is analyzed through SYBR RT-qPCR and normalized for bacterial housekeeping gene expression. […] These effects are illustrated in Tables 6a and 6b:
(§5) Note, for Tables 6a and 6b, that fold changes in virulence gene expression are determined relative to the control condition through the 2^^-ΔΔCt method and are shown as the geometric mean (C.I.) (n = 3) of the 2^^-ΔΔ ^Ct values. All substrates are dissolved in PBS at a concentration of 1 M (upper part) or 1%(w/v) (lower part). Values between 0 and 1 represent relative downregulation, values >1 represent relative upregulation. […] NADG: N-acetyl-D-glucosamine; C.I.: 95% confidence interval.

[2] = test system: P. gingivalis virulence genes; assay: as above; settings: relative to control, 2^-ΔΔCt, n = 3
Protocol: as §1, §3, §4, §5

[3] = test system: F. nucleatum virulence genes; assay: as above; settings: relative to control = 1, 2^-ΔΔCt, n = 3
Protocol: as §1, §3, §4
as §5, with “Table 6c,” for “Tables 6a and 6b, that”, “2^^-ΔΔCt” for “2^^-ΔΔ ^Ct”

[4] = substrate 1 M, listed as D-(+)-raffinose
[5] = lower part of Table 6a, substrate 1%(w/v), relative to control = 1
[6] = substrate 1 M, relative to control = 1, 2^-ΔΔCt, n = 3

OC[C@H]1O[C@H](OC[C@H]2O[C@H](O[C@]3(CO)O[C@H](CO)[C@@H](O)[C@@H]3O)[C@H](O)[C@@H](O)[C@@H]2O)[C@H](O)[C@@H](O)[C@H]1O [D-raffinose, D-(+)-raffinose]
absolute abundance of A. actinomycetemcomitans (Aa), mean ± SD log (Geq/mL) (A. actinomycetemcomitans; substrate 1% (w/v)): 9.14 ± 0.12 log (Geq/mL)
absolute abundance of A. actinomycetemcomitans (Aa), mean ± SD log (Geq/mL) (A. actinomycetemcomitans; substrate 1 M in PBS, n = 3): 8.30 ± 0.29^∗ log (Geq/mL)
absolute abundance of A. naeslundii (An), mean ± SD log (Geq/mL) (A. naeslundii; substrate 1% (w/v)): 7.62 ± 0.08 log (Geq/mL)
absolute abundance of A. naeslundii (An), mean ± SD log (Geq/mL) (A. naeslundii; substrate 1 M in PBS, n = 3): 5.32 ± 0.25^∗ log (Geq/mL)
absolute abundance of P. gingivalis (Pg), mean ± SD log (Geq/mL) (P. gingivalis; substrate 1% (w/v)): 6.94 ± 0.21 log (Geq/mL)
absolute abundance of P. gingivalis (Pg), mean ± SD log (Geq/mL) (P. gingivalis; substrate 1 M in PBS, n = 3): 4.59 ± 0.45^∗ log (Geq/mL)
absolute abundance of P. intermedia (Pi), mean ± SD log (Geq/mL) (P. intermedia; substrate 1% (w/v)): 7.83 ± 0.32 log (Geq/mL)
absolute abundance of P. intermedia (Pi), mean ± SD log (Geq/mL) (P. intermedia; substrate 1 M in PBS, n = 3): 5.21 ± 0.77^∗ log (Geq/mL)
absolute abundance of S. gordonii, mean ± SD log (Geq/mL) (S. gordonii; substrate 1% (w/v)): 8.12 ± 0.06 log (Geq/mL)
absolute abundance of S. gordonii, mean ± SD log (Geq/mL) (S. gordonii; substrate 1 M in PBS, n = 3): 8.93 ± 0.31 log (Geq/mL)
absolute abundance of S. mitis, mean ± SD log (Geq/mL) (S. mitis; substrate 1% (w/v)): 2.65 ± 0.00 log (Geq/mL)
absolute abundance of S. mitis, mean ± SD log (Geq/mL) (S. mitis; substrate 1 M in PBS, n = 3): 3.58 ± 1.31 log (Geq/mL)
decrease in S. oralis numbers in comparison to the control (S. oralis; substrate 1% (w/v)): ~ 0.9 log(Geq/mL)
absolute abundance of S. oralis, mean ± SD log (Geq/mL) (S. oralis; substrate 1% (w/v)): 5.98 ± 0.18^∗ log (Geq/mL)
absolute abundance of S. oralis, mean ± SD log (Geq/mL) (S. oralis; substrate 1 M in PBS, n = 3): 8.52 ± 0.17^∗ log (Geq/mL)
absolute abundance of S. sobrinus, mean ± SD log (Geq/mL) (S. sobrinus; substrate 1% (w/v)): 5.36 ± 0.20 log (Geq/mL)
absolute abundance of S. sobrinus, mean ± SD log (Geq/mL) (S. sobrinus; substrate 1 M in PBS, n = 3): 7.06 ± 0.15 log (Geq/mL)
acetate level in biofilm supernatant, mean ± SD (multi-species biofilms; substrate 1% (w/v)): 380 ± 23 mg/L
butyrate level in biofilm supernatant, mean ± SD (multi-species biofilms; substrate 1% (w/v)): 2003 ± 81 mg/L
formate level in biofilm supernatant, mean ± SD (multi-species biofilms; substrate 1% (w/v)): 3748 ± 197 mg/L
lactate level in biofilm supernatant, mean ± SD (multi-species biofilms; substrate 1% (w/v)): -125 ± 0 mg/L
propionate level in biofilm supernatant, mean ± SD (multi-species biofilms; substrate 1% (w/v)): 2033 ± 48 mg/L
acetate level in biofilm supernatant, mean ± SD (multi-species biofilms; substrate 1 M): 2640 ± 154^∗ mg/L
butyrate level in biofilm supernatant, mean ± SD (multi-species biofilms; substrate 1 M): 154 ± 26^∗ mg/L
formate level in biofilm supernatant, mean ± SD (multi-species biofilms; substrate 1 M): 344 ± 25^∗ mg/L
lactate level in biofilm supernatant, mean ± SD (multi-species biofilms; substrate 1 M): 971 ± 43^∗ mg/L
propionate level in biofilm supernatant, mean ± SD (multi-species biofilms; substrate 1 M): 4178 ± 105^∗ mg/L
acetate level in biofilm supernatant, mean ± SD (multi-species biofilms; [4]): 2640 ± 154 mg/L
butyrate level in biofilm supernatant, mean ± SD (multi-species biofilms; [4]): 154 ± 26 mg/L
lactate level in biofilm supernatant, mean ± SD (multi-species biofilms; [4]): 971 ± 43 mg/L
propionate level in biofilm supernatant, mean ± SD (multi-species biofilms; [4]): 4178 ± 105 mg/L
fold change in aae expression, geometric mean (95% C.I.) [1, 5]: 1.34 (0.38-4.68) fold
fold change in apaH expression, geometric mean (95% C.I.) [1, 5]: 0.91 (0.48-1.73) fold
fold change in cdtB expression, geometric mean (95% C.I.) [1, 5]: 0.73 (0.16-3.39) fold
fold change in emaA expression, geometric mean (95% C.I.) [1, 5]: 0.59 (0.13-2.77) fold
fold change in flp expression, geometric mean (95% C.I.) [1, 5]: 0.89 (0.40-1.99) fold
fold change in ltxA expression, geometric mean (95% C.I.) [1, 5]: 0.30 (0.12-0.79) fold
fold change in omp29 expression, geometric mean (95% C.I.) [1, 5]: 0.87 (0.26-2.87) fold
fold change in omp100 expression, geometric mean (95% C.I.) [1, 5]: 0.31 (0.09-1.08)^∗ fold
fold change in orf859 expression, geometric mean (95% C.I.) [1, 5]: 1.66 (0.86-3.20) fold
fold change in pgA expression, geometric mean (95% C.I.) [1, 5]: 0.99 (0.38-2.55) fold
fold change in vapA expression, geometric mean (95% C.I.) [1, 5]: 1.14 (0.40-3.20) fold
fold change in vppA expression, geometric mean (95% C.I.) [1, 5]: 1.08 (0.53-2.18) fold
fold change in aae expression, geometric mean (95% C.I.) [1, 6]: 0.16 (0.05-0.47)^∗ fold
fold change in apaH expression, geometric mean (95% C.I.) [1, 6]: 0.11 (0.02-0.73)^∗ fold
fold change in cdtB expression, geometric mean (95% C.I.) [1, 6]: 0.07 (0.02-0.25)^∗ fold
fold change in emaA expression, geometric mean (95% C.I.) [1, 6]: 0.09 (0.03-0.29)^∗ fold
fold change in flp expression, geometric mean (95% C.I.) [1, 6]: 0.45 (0.17-1.22) fold
fold change in ltxA expression, geometric mean (95% C.I.) [1, 6]: 0.01 (0.01-0.03)^∗ fold
fold change in omp29 expression, geometric mean (95% C.I.) [1, 6]: 1.37 (0.34-5.47) fold
fold change in omp100 expression, geometric mean (95% C.I.) [1, 6]: 0.09 (0.02-0.43)^∗ fold
fold change in orf859 expression, geometric mean (95% C.I.) [1, 6]: 0.02 (0.01-0.05)^∗ fold
fold change in pgA expression, geometric mean (95% C.I.) [1, 6]: 7.26 (2.09-25.17)^∗ fold
fold change in vapA expression, geometric mean (95% C.I.) [1, 6]: 0.50 (0.13-1.94) fold
fold change in vppA expression, geometric mean (95% C.I.) [1, 6]: 0.05 (0.04-2.42)^∗ fold
fold change in pgA expression, geometric mean (95% C.I.) ([1]; substrate 1 M, relative to control = 1, 2^-ΔΔCt, n = 3, listed as D-(+)-raffinose): 7.3 fold
fold change in fimA expression, geometric mean (95% C.I.) ([2]; substrate 1 % (w/v)): 1.47 (0.92-2.34) fold
fold change in kgp expression, geometric mean (95% C.I.) ([2]; substrate 1 % (w/v)): 1.77 (0.74-4.21) fold
fold change in partC expression, geometric mean (95% C.I.) ([2]; substrate 1 % (w/v)): 0.54 (0.26-1.12) fold
fold change in rgpA expression, geometric mean (95% C.I.) ([2]; substrate 1 % (w/v)): 1.42 (1.12-1.80) fold
fold change in fimA expression, geometric mean (95% C.I.) ([2]; substrate 1 M): 0.03 (0.00-0.16)* fold
fold change in kgp expression, geometric mean (95% C.I.) ([2]; substrate 1 M): <LOD
fold change in partC expression, geometric mean (95% C.I.) ([2]; substrate 1 M): 0.02 (0.00-0.12)^∗ fold
fold change in rgpA expression, geometric mean (95% C.I.) ([2]; substrate 1 M): 0.01 (0.00-0.10)^∗ fold
fold change in ABC transp. perm. (ABC transporter permease) expression, geometric mean (95% C.I.) ([3]; substrate 1% (w/v)): 0.17 (0.04-0.65)^∗ fold
fold change in EF-G expression, geometric mean (95% C.I.) ([3]; substrate 1% (w/v)): 0.12 (0.04-0.33)^∗ fold
fold change in but. -coA transf. (butyrate-acetoacetate CoA-transferase) expression, geometric mean (95% C.I.) ([3]; substrate 1% (w/v)): 0.47 (0.06-3.98) fold
fold change in hemin receptor expression, geometric mean (95% C.I.) ([3]; substrate 1% (w/v)): 0.12 (0.09-0.15)^∗ fold
fold change in hemolysin expression, geometric mean (95% C.I.) ([3]; substrate 1% (w/v)): 0.51 (0.16-1.62)^∗ fold
fold change in ompA expression, geometric mean (95% C.I.) ([3]; substrate 1% (w/v)): 0.70 (0.20-2.44) fold
fold change in transposase expression, geometric mean (95% C.I.) ([3]; substrate 1% (w/v)): 0.78 (0.40-1.53) fold
fold change in ABC transp. perm. (ABC transporter permease) expression, geometric mean (95% C.I.) ([3]; substrate 1 M): 41.25 (11.65-146.10)^∗ fold
fold change in EF-G expression, geometric mean (95% C.I.) ([3]; substrate 1 M): 1.41 (0.70-2.83) fold
fold change in but. -coA transf. (butyrate-acetoacetate CoA-transferase) expression, geometric mean (95% C.I.) ([3]; substrate 1 M): 3.95 (0.89-17.60)* fold
fold change in hemin receptor expression, geometric mean (95% C.I.) ([3]; substrate 1 M): 18.04 (7.92-41.14)^∗ fold
fold change in hemolysin expression, geometric mean (95% C.I.) ([3]; substrate 1 M): 2.50 (1.07-5.83)^∗ fold
fold change in ompA expression, geometric mean (95% C.I.) ([3]; substrate 1 M): 1.07 (0.49-2.36) fold
fold change in transposase expression, geometric mean (95% C.I.) ([3]; substrate 1 M): 251.47 (75.27-840.20)^∗ fold
